Assay results as given in publication PMC6208970, “Linking cytochrome P450 enzymes from Mycobacterium tuberculosis to their cognate ferredoxin partners” (Applied Microbiology and Biotechnology, 2018).
pKd: −log10 of the molar value.

Assays:
CYP124A1 = target: T1, CYP124A1 (Mycobacterium tuberculosis, UniProt P9WPP3); experiment: reconstituted turnover, GC-MS detection of 27-hydroxycholesterol; type: biochemical; conditions: 0.5 μM CYP, 50 μM cholesterol in methyl-β-cyclodextrin; FdrA or FprA with FdxD or FdxE; pH 7.4; 37 °C
T1 construct: gene cyp124
T1 sequence (P9WPP3 whole entry): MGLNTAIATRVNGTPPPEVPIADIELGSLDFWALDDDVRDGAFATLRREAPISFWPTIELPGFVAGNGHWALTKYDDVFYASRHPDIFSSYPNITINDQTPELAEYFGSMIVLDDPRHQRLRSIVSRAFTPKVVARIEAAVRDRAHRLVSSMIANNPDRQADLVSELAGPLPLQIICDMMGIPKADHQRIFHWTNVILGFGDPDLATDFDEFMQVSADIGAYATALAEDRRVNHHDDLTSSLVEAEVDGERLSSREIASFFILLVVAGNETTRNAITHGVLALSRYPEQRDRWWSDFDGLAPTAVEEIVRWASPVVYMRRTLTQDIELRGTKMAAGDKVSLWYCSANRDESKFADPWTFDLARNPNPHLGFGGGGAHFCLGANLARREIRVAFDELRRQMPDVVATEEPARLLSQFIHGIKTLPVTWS

CYP142A1 = target: T2, CYP142A1 (Mycobacterium tuberculosis, UniProt P9WPL5); type: biochemical
T2 construct: gene cyp142
T2 sequence (P9WPL5 whole entry): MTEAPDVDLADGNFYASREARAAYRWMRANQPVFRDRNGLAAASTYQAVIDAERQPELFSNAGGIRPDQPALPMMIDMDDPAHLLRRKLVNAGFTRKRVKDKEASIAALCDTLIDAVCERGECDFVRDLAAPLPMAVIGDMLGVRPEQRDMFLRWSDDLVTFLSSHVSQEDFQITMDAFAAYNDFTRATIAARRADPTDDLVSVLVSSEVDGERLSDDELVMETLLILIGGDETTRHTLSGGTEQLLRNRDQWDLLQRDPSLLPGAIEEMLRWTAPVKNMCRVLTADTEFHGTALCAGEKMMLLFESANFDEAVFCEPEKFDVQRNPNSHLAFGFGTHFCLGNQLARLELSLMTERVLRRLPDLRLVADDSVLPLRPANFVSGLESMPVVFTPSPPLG

CYP125A1 = target: T3, CYP125A1 (Mycobacterium tuberculosis, UniProt P9WPP1); experiment: reconstituted turnover, GC-MS detection of 27-hydroxycholesterol; type: biochemical; conditions: 0.5 μM CYP, 50 μM cholesterol in methyl-β-cyclodextrin; FdrA or FprA with FdxD or FdxE; pH 7.4; 37 °C
T3 construct: gene cyp125
T3 sequence (P9WPP1 whole entry): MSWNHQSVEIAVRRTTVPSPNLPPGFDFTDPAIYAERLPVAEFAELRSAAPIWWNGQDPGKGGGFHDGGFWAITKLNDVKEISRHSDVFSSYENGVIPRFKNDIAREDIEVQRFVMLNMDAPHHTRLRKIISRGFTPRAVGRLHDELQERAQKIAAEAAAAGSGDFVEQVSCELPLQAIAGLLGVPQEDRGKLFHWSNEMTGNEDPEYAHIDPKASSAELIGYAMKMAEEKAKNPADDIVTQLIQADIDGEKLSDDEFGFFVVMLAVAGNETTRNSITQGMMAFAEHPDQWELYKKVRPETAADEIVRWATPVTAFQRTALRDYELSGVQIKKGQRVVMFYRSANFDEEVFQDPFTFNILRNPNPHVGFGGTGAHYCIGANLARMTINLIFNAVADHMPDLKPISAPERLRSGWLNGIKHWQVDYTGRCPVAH

[1] = target: CYP143A1 (Mycobacterium tuberculosis) (UniProt P9WPL2); conditions: cited from earlier work
Sequence of CYP143A1 (Mycobacterium tuberculosis) (P9WPL2 whole entry): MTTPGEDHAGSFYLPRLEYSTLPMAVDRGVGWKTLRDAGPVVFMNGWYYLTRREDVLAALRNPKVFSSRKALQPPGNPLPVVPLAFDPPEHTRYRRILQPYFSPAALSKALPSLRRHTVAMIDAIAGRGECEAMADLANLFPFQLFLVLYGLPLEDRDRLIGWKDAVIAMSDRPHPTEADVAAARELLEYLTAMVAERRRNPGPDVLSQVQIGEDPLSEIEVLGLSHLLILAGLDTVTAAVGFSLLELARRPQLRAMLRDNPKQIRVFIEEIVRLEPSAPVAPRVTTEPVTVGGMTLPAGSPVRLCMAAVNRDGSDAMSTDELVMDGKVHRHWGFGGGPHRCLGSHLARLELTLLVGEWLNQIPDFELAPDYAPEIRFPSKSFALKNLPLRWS

Sequence of ferredoxin Rv1786 (O53937 whole entry): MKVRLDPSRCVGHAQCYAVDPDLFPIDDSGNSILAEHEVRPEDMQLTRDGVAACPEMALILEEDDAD

Row | Compound | reconstituted turnover, GC-MS detection of 27-hydroxycholesterol (CYP124A1) | reconstituted turnover, GC-MS detection of 27-hydroxycholesterol (CYP142A1) | reconstituted turnover, GC-MS detection of 27-hydroxycholesterol (CYP125A1) | pKd [1]
1 | CC(C)CCC[C@@H](C)[C@H]1CC[C@H]2[C@@H]3CC=C4C[C@@H](O)CC[C@]4(C)[C@H]3CC[C@]12C [cholesterol] | only FdxD and FdxE were able to support cholesterol conversion | CYP142A1 was found to be the most efficient in cholesterol conversion | only FdxD and FdxE were able to support cholesterol conversion | 
2 | ferredoxin Rv1786 (from UniProt O53937) |  |  |  | 6.47
